Consider one molecule from patent publication US20200305483A1, “SOURNESS ENHANCERS COMPRISING A CYCLOHEXANECARBOXYLIC ACID” (Firmenich SA, priority 2017, published 2020).

Common to all, as to format: in vivo
A short description of experiment [1]: Paired comparison of sourness, model system comprising citric and lactic acid. The following applies: 50 ppm in 5% sucrose / 0.07% citric acid / 0.09% lactic acid, pH 2.9 (±0.02), 95% confidence level. As for the experimental part: A sucrose (5% by weight), citric acid (0.07% by weight), and lactic acid (0.09% by weight) solution was prepared and used for evaluating the sourness enhancement effect of a cyclohexanecarboxylic acid having the structure: The evaluation consisted of (i) a test solution of 50 ppm of the cyclohexanecarboxylic acid in the sucrose/citric-lactic acid solution; and (ii) a control solution comprising the sucrose/citric-lactic acid solution only. 41 subjects were asked to select out more sour sample in each pair. The pH of the samples was 2.9 (±0.02).

A short description of experiment [2]: Paired comparison of sourness, model system comprising tartaric acid. The settings on record: 50 ppm in 5% sucrose / 0.05% tartaric acid, pH 2.9 (±0.02), 95% confidence level. On the procedure:
A sucrose (5% by weight) and tartaric acid (0.05% by weight) solution was prepared and used for evaluating the sourness enhancement effect of a cyclohexanecarboxylic acid having the structure: The evaluation consisted of (i) a test solution of 50 ppm of the cyclohexanecarboxylic acid in the sucrose/tartaric acid solution; and (ii) a control solution comprising the sucrose/tartaric acid solution only. 41 subjects were asked to select out more sour sample in each pair. The pH of the samples was 2.9 (±0.02).

Experiment [3] is described as follows: Sensory evaluation of sweet, sour and astringent intensities, model system comprising malic acid. On the procedure: A sucrose (5% by weight) and malic acid (0.05% by weight) solution was prepared and used for evaluating the sourness enhancement effect of a cyclohexanecarboxylic acid having the structure: The evaluation consisted of (i) a test solution of 50 ppm of the cyclohexanecarboxylic acid in the sucrose/malic acid solution; and (ii) a control solution comprising the sucrose/malic acid solution only. 27 trained panelists were asked to evaluate the sweet, sour and astringent intensities for each sample on a linear scale from 0 to 10, where 0 corresponded to “no taste” and 10 corresponded to “too strong to taste”.

A short description of experiment [4]: Paired comparison study (2-AFC) of sourness, model system comprising malic acid. The settings on record: 50 ppm in 5% sucrose / 0.05% malic acid, pH 3.1 (±0.02), 95% confidence level. As for the experimental part: A sucrose (5% by weight) and malic acid (0.05% by weight) solution was prepared and used for evaluating the sourness enhancement effect of a cyclohexanecarboxylic acid having the structure: The evaluation consisted of (i) a test solution of 50 ppm of the cyclohexanecarboxylic acid in the sucrose/malic acid solution; and (ii) a control solution comprising the sucrose/malic acid solution only. In a repeat experiment using 41 trained subjects, 41 subjects were asked to select the more sour sample in each pair, in a paired comparison study (2-AFC). The pH of the samples was 3.1 (±0.02). 28 out of 41 subjects found the sample containing compound I at 50 ppm was more sour at a 95% confidence level.

Experiment [5] can be described thus: Sensory evaluation of sweet, sour and astringent intensities, model system comprising citric acid. As for the experimental part:
A sucrose (5% by weight), and citric acid (0.05% by weight) solution was prepared and used for evaluating the sourness enhancement effect of a cyclohexanecarboxylic acid having the structure: The evaluation consisted of (i) a test solution of 50 ppm of the cyclohexanecarboxylic acid in the sucrose/citric acid solution; and (ii) a control solution comprising the sucrose/citric acid solution only. 28 trained panelists were asked to evaluate the sweet, sour and astringent intensities for each sample on a linear scale from 0 to 10, where 0 correlated with “no taste” and 10 correlated with “too strong to taste”.

Where [6] appears, read: 50 ppm (by weight) in sucrose/malic acid solution, versus reference sample.
[7] abbreviates: 50 ppm (by weight) in sucrose/citric acid solution, versus reference sample.

In the case of `O=C(/C=C/c1ccc(O)c(O)c1)O[C@@H]1C[C@](O)(C(=O)O)C[C@@H](O)[C@H]1O` [compound I], in experiment [1], the “subjects who found that adding the compound increased sourness” value was 29 out of 41 subjects. Besides, the “subjects who found that adding the compound increased sourness” value in experiment [2] is listed as 28 out of 41 subjects. Further, in experiment [3] (setting [6]), the “enhancement of astringency intensity” value was determined as 24.0% and the “enhancement of sourness intensity” value is 22.5%. Also, in experiment [3] (50 ppm in 5% sucrose / 0.05% malic acid, 27 trained panelists, linear scale 0 to 10, reference sample 4.0, 95% confidence level), the “sourness intensity (tested sample)” value is reported as 4.9. Further, the “astringency intensity (tested sample)” value in experiment [3] (50 ppm in 5% sucrose / 0.05% malic acid, 27 trained panelists, scale 0 to 10, reference sample 2.5, 99% confidence level) was 3.1. Besides, the “sweet intensity, change versus reference sample” value in experiment [3] (50 ppm in 5% sucrose / 0.05% malic acid, pH value also unchanged) is “Without changing”. Further, in experiment [4], the “subjects who found the sample containing the compound more sour” value is recorded as 28 out of 41 subjects. Also, in experiment [5] (setting [7]), the “change of astringency intensity” value is 28.0% and the “decrease of sweetness intensity” value is recorded as 11.6%. The “astringency intensity (tested sample)” value in experiment [5] (50 ppm in 5% sucrose / 0.05% citric acid, 28 trained panelists, scale 0 to 10, reference sample 2.5) came to 3.2. Moreover, in experiment [5] (50 ppm in 5% sucrose / 0.05% citric acid, 28 trained panelists, scale 0 to 10, reference sample 4.3, 95% confidence level), the “sweetness intensity (tested sample)” value amounted to 3.8. For the same molecule, the “sourness intensity, change versus reference sample” value in experiment [5] (50 ppm in 5% sucrose / 0.05% citric acid, pH value also unchanged) was “Without changing”.
